{"source": "patent US11865126B2", "about": "“Method for treating anxiety disorders, headache disorders, and eating disorders with psilocybin” (priority 2019, dated 2024)", "tested_on": "healthy subjects", "experiment": "Phase 1 healthy volunteer study, single oral dose: treatment-emergent adverse events", "format": "in vivo, human", "conditions": "10 mg", "protocol": "A Phase 1 randomized, double-blind, placebo-controlled study to evaluate the effect of psilocybin on cognitive and emotional processing as compared to placebo in healthy volunteers was conducted. The study investigated the short-term (Day 7) and long-term (Day 28) effects of moderate (10 mg) and high doses (25 mg) of psilocybin on key domains of cognition, such as episodic memory, attention, working and spatial memory, social cognition and elements of executive function, including cognitive flexibility.\n90 healthy subjects were studied. Approximately 50% of the subjects were psilocybin-naïve. For subjects with prior psilocybin experience, the last exposure was at least 1 year prior to the signing of the Informed Consent Form (ICF). Approximately 50% of the subjects were female. Subjects were stratified by sex and age (18-35 years old; >35 years old).\nEach subject was assigned 1 treatment bottle containing 5 capsules packaged in a double-blind fashion, depending on the randomized treatment arm, the bottle contained one of the following: • a. Psilocybin 10 mg: 2×5-mg oral psilocybin capsules plus 3× placebo capsules • b. Psilocybin 25 mg: 5×5-mg oral psilocybin capsules • c. Placebo: 5× placebo capsules\nEach 5-mg oral psilocybin capsule comprised 5 mg crystalline psilocybin in the form of Polymorph A, 12.5 mg of SMCC 50, 79.5 mg of SMCC 90, 1 mg sodium starch glycolate, 1 mg colloidal silicon dioxide, and 1 mg sodium stearyl fumarate\nAdverse events: Throughout the course of the study, all AEs were monitored and recorded. Each AE was classified according to the following criteria: • i. […] Moderate: The AE produces some impairment of functioning, but is not hazardous to the subject's health. • iii. Severe: The AE produces significant impairment of functioning or incapacitation and is a definite hazard to the subject's health.\nSelected Adverse Events of included: • (a) Euphoric mood • (b) Dissociative disorder • (c) Hallucination • (d) Psychotic disorder • (e) Cognitive disorder • (f) Disturbance in attention • (g) Altered mood • (h) Impairment of psychomotor skills • (i) Inappropriate affect • (j) Overdose • (k) Intentional product misuse • (l) Illusion\nFor example, drug-induced hepatitis that resolved without evidence of hepatic failure would not be considered life threatening even though drug-induced hepatitis can be fatal. • (c) Inpatient hospitalization or prolongation of existing hospitalization. • (d) Persistent or significant disability/incapacity. • (e) Congenital anomaly/birth defect in the offspring of a subject who received psilocybin. • (f) Other: Important medical events that may not result in death, be life-threatening, or require hospitalization, may be considered an SAE when, based upon appropriate medical judgment, they may jeopardize the subject and may require medical or surgical intervention to prevent one of the outcomes listed in this definition. […] Visits:\nVisit 3 (V3): Drug Administration (Day 0): The subject was asked to eat a light breakfast at least two hours prior to coming to the clinic for study drug administration. On Day 0 (V3), the subject underwent the SSTS, had vital signs obtained, medications reviewed, AEs recorded and eligibility reviewed prior to being randomized to study drug. The study drug was administered to up to six subjects simultaneously in individual beds separated by a curtain. The subject was invited to put on eyeshades and headphones, lie down and listen to calming music for the rest of the session (six hours). The subject was supported 1:1 with a chaperone and supervised by the study psychiatrist and lead therapist.\nRecording of adverse events and prior/concomitant medication was performed at each visit.\nDuring administration of psilocybin, each subject received one on one support from a trained assisting therapist and each dosing session was supervised by a study psychiatrist and a lead therapist. […]", "data": [{"smiles": "CN(C)CCc1c[nH]c2cccc(OP(=O)(O)O)c12", "note": "[psilocybin]", "values": [{"measurement": "AEs potentially related to study treatment, % of AEs in arm", "value": 92.6, "unit": "%"}, {"measurement": "Affect lability, worst severity Mild: Events", "value": 3}, {"measurement": "Affect lability, worst severity Mild: N (%)", "value": "3 (10.0)"}, {"measurement": "Affect lability, worst severity Moderate: Events", "value": 2}, {"measurement": "Affect lability, worst severity Severe: Events", "value": 0}, {"measurement": "Affect lability, worst severity Severe: N (%)", "value": 0}, {"measurement": "Affect lability: Events", "value": 5}, {"measurement": "Any Selected TEAE: % of subjects", "value": "(90.0) %"}, {"measurement": "Any Selected TEAE: N (%)", "value": 27}, {"measurement": "Any TEAE leading to death: Events", "value": 0}, {"measurement": "Any TEAE leading to death: N (%)", "value": 0}, {"measurement": "Any TEAE leading to study discontinuation: Events", "value": 0}, {"measurement": "Any TEAE leading to study discontinuation: N (%)", "value": 0}, {"measurement": "Any TEAE related to study treatment: % of subjects", "value": "(96.7) %"}, {"measurement": "Any TEAE related to study treatment: N (%)", "value": 29}, {"measurement": "Any TEAE, worst severity Mild: Events", "value": 12}, {"measurement": "Any TEAE, worst severity Mild: N (%)", "value": "6 (20.0)"}, {"measurement": "Any TEAE, worst severity Moderate: Events", "value": 38}, {"measurement": "Any TEAE, worst severity Severe: Events", "value": 22}, {"measurement": "Any TEAE: % of subjects", "value": 96.7, "unit": "%"}, {"measurement": "Any serious TEAE related to study treatment: Events", "value": 0}, {"measurement": "Any serious TEAE related to study treatment: N (%)", "value": 0}, {"measurement": "Any serious TEAE: Events", "value": 0}, {"measurement": "Any serious TEAE: N (%)", "value": 0}, {"measurement": "Any severe TEAE: % of subjects", "value": "(33.3) %"}, {"measurement": "Any severe TEAE: Events", "value": 22}, {"measurement": "Any severe TEAE: N (%)", "value": 10}, {"measurement": "Emotional disorder, worst severity Mild: Events", "value": 1}, {"measurement": "Emotional disorder, worst severity Moderate: Events", "value": 1}, {"measurement": "Emotional disorder, worst severity Severe: Events", "value": 0}, {"measurement": "Emotional disorder, worst severity Severe: N (%)", "value": 0}, {"measurement": "Emotional disorder: Events", "value": 2}, {"measurement": "Euphoric mood, worst severity Mild: Events", "value": 0}, {"measurement": "Euphoric mood, worst severity Mild: N (%)", "value": 0}, {"measurement": "Euphoric mood, worst severity Moderate: Events", "value": 6}, {"measurement": "Euphoric mood, worst severity Moderate: N (%)", "value": "6 (20.0)"}, {"measurement": "Euphoric mood, worst severity Severe: Events", "value": 1}, {"measurement": "Euphoric mood: Events", "value": 7}, {"measurement": "Fatigue, worst severity Mild: Events", "value": 6}, {"measurement": "Fatigue, worst severity Mild: N (%)", "value": "6 (20.0)"}, {"measurement": "Fatigue, worst severity Moderate: Events", "value": 3}, {"measurement": "Fatigue, worst severity Severe: Events", "value": 1}, {"measurement": "Fatigue: Events", "value": 10}, {"measurement": "Fatigue: N (%)", "value": "9 (30.0)"}, {"measurement": "Feeling abnormal, worst severity Mild: Events", "value": 3}, {"measurement": "Feeling abnormal, worst severity Mild: N (%)", "value": "3 (10.0)"}, {"measurement": "Feeling abnormal, worst severity Moderate: Events", "value": 1}, {"measurement": "Feeling abnormal, worst severity Severe: Events", "value": 0}, {"measurement": "Feeling abnormal, worst severity Severe: N (%)", "value": 0}, {"measurement": "Feeling abnormal: Events", "value": 4}, {"measurement": "Feeling of relaxation: Events", "value": 5}, {"measurement": "Feeling of relaxation: N (%)", "value": "3 (10.0)"}, {"measurement": "Gastrointestinal disorders, worst severity Mild: Events", "value": 3}, {"measurement": "Gastrointestinal disorders, worst severity Mild: N (%)", "value": "3 (10.0)"}, {"measurement": "Gastrointestinal disorders, worst severity Moderate: Events", "value": 1}, {"measurement": "Gastrointestinal disorders, worst severity Severe: Events", "value": 0}, {"measurement": "Gastrointestinal disorders, worst severity Severe: N (%)", "value": 0}, {"measurement": "Gastrointestinal disorders: Events", "value": 4}, {"measurement": "General disorders and administration site conditions, worst severity Mild: Events", "value": 17}, {"measurement": "General disorders and administration site conditions, worst severity Moderate: Events", "value": 6}, {"measurement": "General disorders and administration site conditions, worst severity Moderate: N (%)", "value": "3 (10.0)"}, {"measurement": "General disorders and administration site conditions, worst severity Severe: Events", "value": 1}, {"measurement": "General disorders and administration site conditions: Events", "value": 27}, {"measurement": "Hallucination, auditory, worst severity Mild: Events", "value": 1}, {"measurement": "Hallucination, auditory, worst severity Moderate: Events", "value": 1}, {"measurement": "Hallucination, auditory, worst severity Severe: Events", "value": 2}, {"measurement": "Hallucination, auditory: Events", "value": 4}, {"measurement": "Hallucination, tactile: Events", "value": 2}, {"measurement": "Hallucination, visual, worst severity Mild: Events", "value": 3}, {"measurement": "Hallucination, visual, worst severity Mild: N (%)", "value": "3 (10.0)"}, {"measurement": "Hallucination, visual, worst severity Moderate: Events", "value": 8}, {"measurement": "Hallucination, visual, worst severity Severe: Events", "value": 7}, {"measurement": "Hallucination, visual: Events", "value": 20}, {"measurement": "Hallucination, worst severity Mild: Events", "value": 0}, {"measurement": "Hallucination, worst severity Mild: N (%)", "value": 0}, {"measurement": "Hallucination, worst severity Moderate: Events", "value": 3}, {"measurement": "Hallucination, worst severity Moderate: N (%)", "value": "3 (10.0)"}, {"measurement": "Hallucination, worst severity Severe: Events", "value": 0}, {"measurement": "Hallucination, worst severity Severe: N (%)", "value": 0}, {"measurement": "Hallucination: Events", "value": 3}, {"measurement": "Hallucination: N (%)", "value": "3 (10.0)"}, {"measurement": "Headache, worst severity Mild: Events", "value": 12}, {"measurement": "Headache, worst severity Mild: N (%)", "value": "9 (30.0)"}, {"measurement": "Headache, worst severity Moderate: Events", "value": 0}, {"measurement": "Headache, worst severity Moderate: N (%)", "value": 0}, {"measurement": "Headache, worst severity Severe: Events", "value": 0}, {"measurement": "Headache, worst severity Severe: N (%)", "value": 0}, {"measurement": "Headache: Events", "value": 12}, {"measurement": "Headache: N (%)", "value": "9 (30.0)"}, {"measurement": "Hypoaesthesia, worst severity Mild: Events", "value": 2}, {"measurement": "Hypoaesthesia, worst severity Moderate: Events", "value": 0}, {"measurement": "Hypoaesthesia, worst severity Moderate: N (%)", "value": 0}, {"measurement": "Hypoaesthesia, worst severity Severe: Events", "value": 0}, {"measurement": "Hypoaesthesia, worst severity Severe: N (%)", "value": 0}, {"measurement": "Hypoaesthesia: Events", "value": 2}, {"measurement": "Illusion, worst severity Mild: Events", "value": 7}, {"measurement": "Illusion, worst severity Moderate: Events", "value": 6}, {"measurement": "Illusion, worst severity Severe: Events", "value": 0}, {"measurement": "Illusion, worst severity Severe: N (%)", "value": 0}, {"measurement": "Illusion: Events", "value": 25}, {"measurement": "Infections and infestations, worst severity Mild: Events", "value": 2}, {"measurement": "Infections and infestations, worst severity Moderate: Events", "value": 2}, {"measurement": "Infections and infestations, worst severity Severe: Events", "value": 0}]}]}
